Data reported in paper PMC9921851, “Synthesis and Preclinical Evaluation of Three Novel ^68Ga-Labeled Bispecific PSMA/FAP-Targeting Tracers for Prostate Cancer Imaging” (Molecules, 2023).

Experiments:
[1] = tested on: PSMA-expressing LNCaP tumor xenografts; test: Ex vivo biodistribution in LNCaP tumor-bearing mice; details: LNCaP tumor-bearing mice, 1 h post injection, mean ± SD, n = 4
Procedure: Biodistribution studies were conducted at 1 h post injection with ^68Ga-labeled AV01017, AV01030, AV01038, HTK03041, and FAPI-04 in LNCaP tumor-bearing mice (Figure 5 and Table S4, Supplementary Materials). The results were consistent with the observation from their PET images. Tumor uptake values for [^68Ga]Ga-AV01017, [^68Ga]Ga-AV01030, [^68Ga]Ga-AV01038, [^68Ga]Ga-HTK03041, and [^68Ga]Ga-FAPI-04 were 4.38 ± 0.55, 5.17 ± 0.51, 4.25 ± 0.86, 23.1 ± 6.11, and 3.15 ± 1.43 %ID/g, respectively. […] Although not statistically significant, the bispecific tracers with a longer linker tend to have a higher blood uptake value (9.24 ± 1.55 %ID/g for [^68Ga]Ga-AV01017; 7.07 ± 0.31%ID/g for [^68Ga]Ga-AV01038; 5.75 ± 0.59 %ID/g for [^68Ga]Ga-AV01030) and a lower tumor-to-blood ratio (0.48 ± 0.11 for [^68Ga]Ga-AV01017; 0.60 ± 0.13 for [^68Ga]Ga-AV01038; 0.89 ± 0.03 for [^68Ga]Ga-AV01030).
(§1) Imaging and biodistribution studies were performed using male NOD.Cg-Rag1tm1Mom Il2rgtm1Wjl/SzJ (NRG) mice following previously published procedures. The experiments were conducted according to the guidelines established by the Canadian Council on Animal Care and approved by Animal Ethics Committee of the University of British Columbia. The mice were briefly sedated by inhalation of 2.5% isoflurane in oxygen, and 100 µL LNCaP (2 × 10^5 cells) or HEK293T:hFAP (8.5 × 10^6 cells) cells were inoculated subcutaneously behind the left shoulder. When the tumor grew to 5–8 mm in diameter over 3–4 weeks and 4–5 weeks for HEK293T:hFAP and LNCaP tumors, respectively, the mice were used for PET/CT imaging and biodistribution studies.
(§2) For biodistribution studies, the mice were injected with the radiotracer (~2–4 MBq) as described above. At 1 h post injection, the mice were euthanized by CO2 inhalation. Blood was withdrawn by cardiac puncture, and organs/tissues of interest were collected, weighed, and counted using a Perkin Elmer (Waltham, MA, USA) Wizard2 2480 automatic gamma counter.

[2] = tested on: FAP-expressing HEK293T:hFAP tumor xenografts; test: Ex vivo biodistribution in HEK293T:hFAP tumor-bearing mice; details: 1 h post injection, mean ± SD, n = 4
Procedure: Biodistribution studies were also conducted at 1 h post injection with [^68Ga]Ga-AV01017, [^68Ga]Ga-AV01030, [^68Ga]Ga-AV01038, [^68Ga]Ga-HTK03041, and [^68Ga]Ga-FAPI-04 in HEK293T:hFAP tumor-bearing mice (Figure 6 and Table S5, Supplementary Materials). Tumor uptake values for [^68Ga]Ga-AV01017, [^68Ga]Ga-AV01030, [^68Ga]Ga-AV01038, [^68Ga]Ga-HTK03041, and [^68Ga]Ga-FAPI-04 were 2.99 ± 0.37, 3.69 ± 0.81, 3.64 ± 0.83, 0.62 ± 0.19, and 12.5 ± 2.00 %ID/g, respectively. There was a very low tumor uptake in mice injected with [^68Ga]Ga-HTK03041, showing very minimal FAP expression in this tumor model. The uptake levels of these tracers on the major organs and tissues are consistent with the trends observed in the LNCaP tumor-baring mice (Figure 5 and Supplemental Table S4).
as §1, §2

N#C[C@@H]1CC(F)(F)CN1C(=O)CNC(=O)c1ccnc2ccc(OCc3cn(CC(=O)N[C@@H](CCCCNC(=O)CN4CCN(CC(=O)[O-])CCN(CC(=O)[O-])CCN(CC(=O)[O-])CC4)C(=O)NCC(=O)NC[C@H]4CC[C@H](C(=O)N[C@@H](Cc5c6ccccc6cc6ccccc56)C(=O)NCCCC[C@H](NC(=O)N[C@@H](CCC(=O)O)C(=O)O)C(=O)O)CC4)nn3)cc12.[68Ga+3] [[^68Ga]Ga-AV01038]
Adrenal glands uptake [1]: 3.69 ± 2.54 %ID/g
Blood uptake [1]: 7.07 ± 0.31 %ID/g
Bone uptake [1]: 4.64 ± 1.70 %ID/g
Brain uptake [1]: 0.15 ± 0.02 %ID/g
Fat uptake [1]: 1.01 ± 0.28 %ID/g
Heart uptake [1]: 3.26 ± 0.24 %ID/g
Kidneys uptake [1]: 40.5 ± 8.26 %ID/g
LNCaP tumor uptake [1]: 4.25 ± 0.86 %ID/g
Lacrimal glands uptake [1]: 0.06 ± 0.13 %ID/g
Large Intestine uptake [1]: 1.65 ± 0.31 %ID/g
Liver uptake [1]: 2.06 ± 0.13 %ID/g
Lungs uptake [1]: 3.74 ± 0.78 %ID/g
Muscle uptake [1]: 1.68 ± 0.21 %ID/g
Pancreas uptake [1]: 3.91 ± 0.20 %ID/g
Salivary glands uptake [1]: 6.41 ± 1.19 %ID/g
Seminal vesicle uptake [1]: 1.51 ± 0.08 %ID/g
Small Intestine uptake [1]: 2.12 ± 0.24 %ID/g
Spleen uptake [1]: 6.77 ± 4.86 %ID/g
Stomach uptake [1]: 0.64 ± 0.11 %ID/g
Testes uptake [1]: 1.04 ± 0.10 %ID/g
Thyroid uptake [1]: 11.1 ± 1.62 %ID/g
Tumor/blood uptake ratio [1]: 0.60 ± 0.13
Tumor/bone uptake ratio [1]: 0.97 ± 0.30
Tumor/kidney uptake ratio [1]: 0.10 ± 0.02
Tumor/muscle uptake ratio [1]: 2.52 ± 0.33
Adrenal glands uptake [2]: 6.14 ± 3.79 %ID/g
Blood uptake [2]: 7.45 ± 1.70 %ID/g
Bone uptake [2]: 3.03 ± 1.12 %ID/g
Brain uptake [2]: 0.13 ± 0.02 %ID/g
Fat uptake [2]: 0.53 ± 0.10 %ID/g
HEK293T:hFAP tumor uptake [2]: 3.64 ± 0.83 %ID/g
Heart uptake [2]: 2.69 ± 0.22 %ID/g
Kidneys uptake [2]: 25.0 ± 1.76 %ID/g
Lacrimal gland uptake [2]: 0.22 ± 0.16 %ID/g
Large Intestine uptake [2]: 0.99 ± 0.17 %ID/g
Liver uptake [2]: 2.16 ± 0.33 %ID/g
Lungs uptake [2]: 3.83 ± 0.55 %ID/g
Muscle uptake [2]: 1.23 ± 0.11 %ID/g
Pancreas uptake [2]: 3.82 ± 1.29 %ID/g
Salivary glands uptake [2]: 4.02 ± 0.69 %ID/g
Seminal vesicle uptake [2]: 1.15 ± 0.69 %ID/g
Small Intestine uptake [2]: 1.70 ± 0.19 %ID/g
Spleen uptake [2]: 5.47 ± 1.03 %ID/g
Stomach uptake [2]: 0.60 ± 0.18 %ID/g
Testes uptake [2]: 0.74 ± 0.09 %ID/g
Thyroid uptake [2]: 6.51 ± 1.07 %ID/g
Tumor/blood uptake ratio [2]: 0.49 ± 0.37
Tumor/bone uptake ratio [2]: 1.17 ± 0.40
Tumor/kidney uptake ratio [2]: 0.11 ± 0.02
Tumor/muscle uptake ratio [2]: 2.21 ± 0.17

N#C[C@@H]1CC(F)(F)CN1C(=O)CNC(=O)c1ccnc2ccc(OCCCc3cn(CC(=O)N[C@@H](CCCCNC(=O)CN4CCN(CC(=O)[O-])CCN(CC(=O)[O-])CCN(CC(=O)[O-])CC4)C(=O)NCC(=O)NC[C@H]4CC[C@H](C(=O)N[C@@H](Cc5c6ccccc6cc6ccccc56)C(=O)NCCCC[C@H](NC(=O)N[C@@H](CCC(=O)O)C(=O)O)C(=O)O)CC4)nn3)cc12.[68Ga+3] [[^68Ga]Ga-AV01017]
Adrenal glands uptake [1]: 6.24 ± 2.31 %ID/g
Blood uptake [1]: 9.24 ± 1.55 %ID/g
Bone uptake [1]: 4.05 ± 0.86 %ID/g
Brain uptake [1]: 0.18 ± 0.01 %ID/g
Fat uptake [1]: 1.01 ± 0.48 %ID/g
Heart uptake [1]: 4.04 ± 0.28 %ID/g
Kidneys uptake [1]: 30.9 ± 6.89 %ID/g
LNCaP tumor uptake [1]: 4.38 ± 0.55 %ID/g
Lacrimal glands uptake [1]: 0.13 ± 0.27 %ID/g
Large Intestine uptake [1]: 1.76 ± 0.21 %ID/g
Liver uptake [1]: 2.24 ± 0.34 %ID/g
Lungs uptake [1]: 3.76 ± 0.66 %ID/g
Muscle uptake [1]: 1.91 ± 0.43 %ID/g
Pancreas uptake [1]: 5.38 ± 1.29 %ID/g
Salivary glands uptake [1]: 5.98 ± 4.00 %ID/g
Seminal vesicle uptake [1]: 1.12 ± 0.21 %ID/g
Small Intestine uptake [1]: 2.47 ± 0.48 %ID/g
Spleen uptake [1]: 3.73 ± 1.19 %ID/g
Stomach uptake [1]: 0.64 ± 0.11 %ID/g
Testes uptake [1]: 0.69 ± 0.06 %ID/g
Thyroid uptake [1]: 12.7 ± 2.72 %ID/g
Tumor/blood uptake ratio [1]: 0.48 ± 0.11
Tumor/bone uptake ratio [1]: 1.10 ± 0.15
Tumor/kidney uptake ratio [1]: 0.14 ± 0.03
Tumor/muscle uptake ratio [1]: 2.35 ± 0.35
Adrenal glands uptake [2]: 4.06 ± 0.27 %ID/g
Blood uptake [2]: 11.9 ± 3.37 %ID/g
Bone uptake [2]: 5.26 ± 0.32 %ID/g
Brain uptake [2]: 0.21 ± 0.07 %ID/g
Fat uptake [2]: 0.61 ± 0.13 %ID/g
HEK293T:hFAP tumor uptake [2]: 2.99 ± 0.37 %ID/g
Heart uptake [2]: 4.63 ± 0.42 %ID/g
Kidneys uptake [2]: 19.3 ± 2.25 %ID/g
Lacrimal gland uptake [2]: 1.34 ± 0.50 %ID/g
Large Intestine uptake [2]: 1.44 ± 0.20 %ID/g
Liver uptake [2]: 3.40 ± 0.64 %ID/g
Lungs uptake [2]: 5.50 ± 1.26 %ID/g
Muscle uptake [2]: 1.63 ± 0.06 %ID/g
Pancreas uptake [2]: 3.80 ± 0.25 %ID/g
Salivary glands uptake [2]: 6.43 ± 1.03 %ID/g
Seminal vesicle uptake [2]: 1.15 ± 0.33 %ID/g
Small Intestine uptake [2]: 2.14 ± 0.65 %ID/g
Spleen uptake [2]: 3.63 ± 3.60 %ID/g
Stomach uptake [2]: 0.63 ± 0.08 %ID/g
Testes uptake [2]: 1.15 ± 0.86 %ID/g
Thyroid uptake [2]: 10.7 ± 2.15 %ID/g
Tumor/blood uptake ratio [2]: 0.18 ± 0.08
Tumor/bone uptake ratio [2]: 0.44 ± 0.12
Tumor/kidney uptake ratio [2]: 0.11 ± 0.03
Tumor/muscle uptake ratio [2]: 1.25 ± 0.17

N#C[C@@H]1CC(F)(F)CN1C(=O)CNC(=O)c1ccnc2ccc(-c3cn(CC(=O)N[C@@H](CCCCNC(=O)CN4CCN(CC(=O)[O-])CCN(CC(=O)[O-])CCN(CC(=O)[O-])CC4)C(=O)NCC(=O)NC[C@H]4CC[C@H](C(=O)N[C@@H](Cc5c6ccccc6cc6ccccc56)C(=O)NCCCC[C@H](NC(=O)N[C@@H](CCC(=O)O)C(=O)O)C(=O)O)CC4)nn3)cc12.[68Ga+3] [[^68Ga]Ga-AV01030]
Adrenal glands uptake [1]: 3.13 ± 1.25 %ID/g
Blood uptake [1]: 5.75 ± 0.59 %ID/g
Bone uptake [1]: 4.48 ± 0.59 %ID/g
Brain uptake [1]: 0.12 ± 0.01 %ID/g
Fat uptake [1]: 0.68 ± 0.12 %ID/g
Heart uptake [1]: 2.41 ± 0.13 %ID/g
Kidneys uptake [1]: 44.0 ± 2.42 %ID/g
LNCaP tumor uptake [1]: 5.17 ± 0.51 %ID/g
Lacrimal glands uptake [1]: 0.44 ± 0.68 %ID/g
Large Intestine uptake [1]: 1.32 ± 0.29 %ID/g
Liver uptake [1]: 1.43 ± 0.26 %ID/g
Lungs uptake [1]: 2.93 ± 0.28 %ID/g
Muscle uptake [1]: 1.59 ± 0.14 %ID/g
Pancreas uptake [1]: 3.63 ± 0.29 %ID/g
Salivary glands uptake [1]: 4.76 ± 1.79 %ID/g
Seminal vesicle uptake [1]: 1.04 ± 0.13 %ID/g
Small Intestine uptake [1]: 1.58 ± 0.13 %ID/g
Spleen uptake [1]: 6.50 ± 1.37 %ID/g
Stomach uptake [1]: 0.44 ± 0.07 %ID/g
Testes uptake [1]: 0.70 ± 0.08 %ID/g
Thyroid uptake [1]: 8.33 ± 0.41 %ID/g
Tumor/blood uptake ratio [1]: 0.89 ± 0.03
Tumor/bone uptake ratio [1]: 1.17 ± 0.26
Tumor/kidney uptake ratio [1]: 0.11 ± 0.00
Tumor/muscle uptake ratio [1]: 3.25 ± 0.39
Adrenal glands uptake [2]: 3.15 ± 0.39 %ID/g
Blood uptake [2]: 5.68 ± 0.72 %ID/g
Bone uptake [2]: 3.59 ± 0.44 %ID/g
Brain uptake [2]: 0.12 ± 0.02 %ID/g
Fat uptake [2]: 0.63 ± 0.20 %ID/g
HEK293T:hFAP tumor uptake [2]: 3.69 ± 0.81 %ID/g
Heart uptake [2]: 2.20 ± 0.46 %ID/g
Kidneys uptake [2]: 30.0 ± 8.71 %ID/g
Lacrimal gland uptake [2]: 0.20 ± 0.24 %ID/g
Large Intestine uptake [2]: 1.15 ± 0.10 %ID/g
Liver uptake [2]: 1.51 ± 0.33 %ID/g
Lungs uptake [2]: 3.02 ± 0.25 %ID/g
Muscle uptake [2]: 1.78 ± 0.58 %ID/g
Pancreas uptake [2]: 3.26 ± 0.82 %ID/g
Salivary glands uptake [2]: 7.01 ± 2.25 %ID/g
Small Intestine uptake [2]: 1.23 ± 0.16 %ID/g
Spleen uptake [2]: 7.41 ± 1.75 %ID/g
Stomach uptake [2]: 0.42 ± 0.04 %ID/g
Testes uptake [2]: 0.66 ± 0.08 %ID/g
Thyroid uptake [2]: 7.70 ± 1.08 %ID/g
Tumor/bone uptake ratio [2]: 1.04 ± 0.31
Tumor/muscle uptake ratio [2]: 2.12 ± 0.30
